Laboratory results taken from patent US20220017478A1, “2-BENZOYLAMINOBENZAMIDE DERIVATIVES AS BCL-3 INHIBITORS” (University College Cardiff Consultants Limited, priority 2013, published 2022).

Assays:
[1] = Cell Titre Blue viability assay, HEK-293; assay type: cell-based; settings: human, HEK-293 cells, HEK-293, 10 μM, vs DMSO
Text: In all assays, a DMSO control was always used.

[2] = Cell Titre Blue viability assay, MDA-MB-231; settings: human, MDA-MB-231 cells
Protocol: (§1) The viability of cells at experimental endpoints for particular assays was determined using the Cell Titre Blue reagent (Promega, Southampton, UK). This reagent measures the cellular metabolic activity using resazurin as an indicator dye. Viable cells, therefore metabolically active, will reduce resazurin into highly fluorescent resofurin. The resulting fluorescence levels are measured and indicate cell viability.
(§2) Cells were plated at low confluency into 96 well plates in 100 μl of complete growth media in triplicates and were incubated at 37° C. in 5% CO2 for the desired test exposure period. For each 100 μl of media in 96 well plates, 20 μl Cell Titre Blue reagent was added followed by incubation for an hour at 37° C. in 5% CO2. Fluorescence was then measured by setting excitation/emission wavelengths to 560/590 nm on a Flurostar Optima plate reader (BMG tabtech, Bucks, UK).
(§3) Cell toxicity was evaluated using the Cell Titre Blue viability assay over a range of molarities for 24 hrs.
(§4) Selected compounds were dissolved in DMSO and diluted to a highest concentration of 10 μM (0.1% DMSO). In all assays, a DMSO control was always used. Selected compounds were tested for cell toxicity in HEK-293 and MDA-MB-231 cells before being used in cell-based assays. Cell toxicity was evaluated using the Cell Titre Blue viability assay over a range of molarities for 24 hrs

MDA-MB-231 cells = settings: 10 µM
Protocol: as §1, §2, §3, §4

NF-κB activity = experiment: NF-κB luciferase reporter assay in MDA-MB-231 cells overexpressing Bcl-3; assay type: cell-based, human; settings: for IC50: MDA-MB-231 overexpressing Bcl-3, 24 hrs then reporter 48 hrs, read-out: IC50 NF-κB activity
Protocol: For NF-κB luciferase assays, cells were seeded into clear bottom black 96-well plates (Corning Inc., Lowell, US) in antibiotic free culture media in appropriate density. After 24 hrs, cells were transfected with 10 ng of 3×κB luciferase plasmid and 10 ng of pcDNA3.1-Lacl plasmid per well. Empty pcDNA3.1 plasmid was also included to normalize the total weight of DNA transfected to 100 ng. For positive and negative controls respectively, 10 ng of pGL3control or pGL3basic were transfected in place of 3×KB luciferase plasmid. Transfection was carried out using Lipofectamine LTX reagents (Invitrogen, Paisley, UK).
After 48 hrs post-transfection with luciferase reporter plasmid, the media was aspirated and cells were lyzed using 50 μl/well of Glo-lysis buffer (Promega, Southampton, UK). The plate was left on a rocker for 20 min to facilitate complete cell lysis. Then, 20 μl of lysate from each well was removed and transferred into a new clear bottom black well plate for measuring LacZ activity as a transfection efficiency control and followed by addition of 20 ul/well of Beta-Glo substrate (Promega, Southampton, UK) and cultivation at room temperature for at least 20 min. Subsequently, 30 μl/well of Bright-Glo luciferase substrate (Promega, Southampton, UK) was added to the original plate and asses immediately for luminescence activity. The luminescence produced from either reaction was read using a Flurostar Optima plate reader (BMG tabtech, Bucks, UK).
The effect of Compound 1a on NF-κB activity was determined by NF-κB luciferase assay in MDA-MB-231 and HEK-293 cells overexpressing Bcl-3 and HEK-293 cells overexpressing p52. Cells were cultivated with Compound 1a over a range of molarities for 24 hrs before being transfected with NF-κB luciferase reporter plasmid for 48 hrs and analyzed for NF-κB activity.
The effect of selected analogues on NF-κB activity was determined by NF-KB luciferase assay in MDA-MB-231 cells. MDA-MB-231 Bcl-3 over-expressing cells were cultivated with compounds from series 1-3 at 1 μM concentration for 24 hrs before being transfected with NF-κB luciferase reporter plasmid for 48 hrs together with controls and analyzed for NF-κB activity.
Based on the results for the series of analogues, we have established dose response curve for selected analogues from series 1 (If), from series 2 (2a and 2c) and from series 3 (3a) over a range of molarities. MDA-MB-231 Bcl-3 WT cells were cultivated with selected compounds from series 1-3 over a range of molarities for 24 hrs before being transfected with NF-κB luciferase reporter plasmid for 48 hrs together with controls and analyzed for NF-κB activity (FIG. 7).

IC50 (NF-κB activity) [nM] | SMILES | viability at 24 h, 10 µM [1] [%] | viability at 24 h, 10 µM [2] [%] | also measured
 | O=C(Nc1ccccc1C(=O)NCCN1CCOCC1)c1ccc(F)cc1 [Compound 1c, 2-[(4-fluorobenzoyl)amino]-N-(2-morpholin-4-ylethyl)benzamide] | > 70 | > 70 | 
 | COc1cccc(C(=O)Nc2ccccc2C(=O)NCCN2CCOCC2)c1 [Compound 1e, 2-[(3-methoxybenzoyl)amino]-N-(2-morpholin-4-ylethyl)benzamide] | > 70 | > 70 | 
 | O=C(NCCN1CCOCC1)c1ccccc1NC(=O)c1ccccc1[N+](=O)[O-] [Compound 1g, 2-[(2-nitrobenzoyl)amino]-N-(2-morpholin-4-ylethyl)benzamide] | > 70 | > 70 | 
 | O=C(Nc1ccccc1C(=O)NCCN1CCOCC1)c1ccc([N+](=O)[O-])cc1 [Compound 1i, 2-[(4-nitrobenzoyl)amino]-N-(2-morpholin-4-ylethyl) benzamide] |  |  | cell viability (MDA-MB-231 cells): above 70%
238 | O=C(Nc1ccccc1C(=O)NCCN1CCOCC1)c1cc(F)cc(F)c1 [Compound 1o, 3,5-difluoro-N-(2-[(2-morpholin-4-ylethyl)carbamoyl]phenyl) benzamide] |  |  | 
706 | O=C(NCCN1CCOCC1)c1ccccc1NC(=O)c1c(F)cccc1F [Compound 1p, 2,6-difluoro-N-(2-[(2-morpholin-4-ylethyl)carbamoyl]phenyl) benzamide] |  |  | 
989 | O=C(Nc1ccccc1C(=O)NCCN1CCOCC1)c1ccc(F)cc1F [Compound 1q, 2,4-difluoro-N-(2-[(2-morpholin-4-ylethyl)carbamoyl]phenyl) benzamide] |  |  | 
 | O=C(Nc1ccc(I)cc1C(=O)NCCN1CCOCC1)c1ccccc1F [Compound 3c, 2-[(2-fluorobenzoyl)amino]-5-iodo-N-(2-morpholin-4-ylethyl)benzamide] |  |  | effect on NF-κB activity (NF-κB activity; 1 μM, 24 hrs, MDA-MB-231 Bcl-3 over-expressing cells, vs DMSO control / Compound 1a): significant decrease in NF-κB activity
